Assay results: publication PMC3898987 (Bioorganic & Medicinal Chemistry, 2013)
Changes are numbered by the printed parent chain.

How the values were obtained:
[1] = target: T1, 5-HT3AB receptor, 5-HT3B subunit F130A (Homo sapiens, UniProt O95264+P46098, F123A); test: FlexStation membrane potential dye functional assay, HEK293 cells; details: 5-HT concentration-response, 5-HT3AB with 5-HT3B F130A
T1 sequence (P46098 24-478): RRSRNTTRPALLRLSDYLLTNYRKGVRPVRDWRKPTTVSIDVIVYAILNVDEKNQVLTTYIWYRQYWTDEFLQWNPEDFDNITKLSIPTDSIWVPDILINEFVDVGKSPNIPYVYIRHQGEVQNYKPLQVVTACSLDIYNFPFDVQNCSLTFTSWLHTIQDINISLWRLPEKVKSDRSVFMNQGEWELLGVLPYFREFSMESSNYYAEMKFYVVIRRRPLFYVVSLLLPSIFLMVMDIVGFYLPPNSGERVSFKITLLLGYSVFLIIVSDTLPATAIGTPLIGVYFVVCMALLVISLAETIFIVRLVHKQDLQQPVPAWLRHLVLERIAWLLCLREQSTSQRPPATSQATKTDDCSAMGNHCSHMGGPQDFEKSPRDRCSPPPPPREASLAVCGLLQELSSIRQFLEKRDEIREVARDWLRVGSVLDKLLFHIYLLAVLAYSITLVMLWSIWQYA
T1 sequence (O95264 22-441 F123A): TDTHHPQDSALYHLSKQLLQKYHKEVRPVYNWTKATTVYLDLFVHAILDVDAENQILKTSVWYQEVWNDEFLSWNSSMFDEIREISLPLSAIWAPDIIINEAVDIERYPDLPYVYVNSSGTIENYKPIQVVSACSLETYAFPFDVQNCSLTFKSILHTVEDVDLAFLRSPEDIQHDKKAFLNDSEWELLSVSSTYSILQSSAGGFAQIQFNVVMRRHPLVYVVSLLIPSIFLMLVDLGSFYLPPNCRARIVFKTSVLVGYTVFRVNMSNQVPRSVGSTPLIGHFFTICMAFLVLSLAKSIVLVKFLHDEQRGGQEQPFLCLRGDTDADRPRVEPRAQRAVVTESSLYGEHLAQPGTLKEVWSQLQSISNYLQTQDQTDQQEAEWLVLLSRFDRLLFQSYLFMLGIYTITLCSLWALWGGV
Protocol: (§1) Human embryonic kidney (HEK) 293 cells were cultured on 90 mm tissue culture plates at 37 °C and 7% CO2 in a humidified atmosphere. They were grown in DMEM:F12 (Dulbecco’s Modified Eagle’s Medium/Nutrient Mix F12 (1:1)) with GlutaMAX I™ containing 10% fetal calf serum and passaged when confluent. […] For FlexStation assays, transfected cells were plated on 96-well plates and incubated 1–2 days before assay.
(§2) Fluorometric studies were undertaken using a FlexStation® (Molecular Devices, Sunnyvale, CA, USA) as previously described.[11]
(§3) Fluorescence was measured every 2 s for 200 s. […] Concentration–response and inhibition curves were obtained for each mutant, and the fluorescence values were normalized to the maximal response.

[2] = target: T2, 5-HT3AB receptor, 5-HT3B subunit H73A (Homo sapiens, UniProt O95264+P46098, H66A); test: cell-based
T2 sequence (P46098 24-478): T1 sequence (P46098 24-478)
T2 sequence (O95264 22-441 H66A): T1 sequence (O95264 22-441 F123A) with H45A, A102F
Protocol: as §1, §2, §3

5-HT3A receptor W90C = target: T3, 5-HT3A receptor W90C (Homo sapiens, UniProt P46098, W85C); test: radioligand saturation binding, transfected HEK293 membranes; details: [3H]-palonosetron saturation, 5-HT3A W90C, 4 °C, 24 h, NB = no binding
T3 sequence (P46098 24-478 W85C): T1 sequence (P46098 24-478) with W62C
Protocol: (§4) Human embryonic kidney (HEK) 293 cells were cultured on 90 mm tissue culture plates at 37 °C and 7% CO2 in a humidified atmosphere. They were grown in DMEM:F12 (Dulbecco’s Modified Eagle’s Medium/Nutrient Mix F12 (1:1)) with GlutaMAX I™ containing 10% fetal calf serum and passaged when confluent. For radioligand binding studies, cells in 90 mm dishes were transfected at 60–70% confluency using polyethyleneimine and incubated for 3–4 days before use. For FlexStation assays, transfected cells were plated on 96-well plates and incubated 1–2 days before assay. […]
(§5) Eight-point binding assays were performed to produce saturation binding curves. […] Radioactive counts were measured using a Beckman LS6000SC liquid scintillation counter (Fullerton, California, USA).
(§6) Data were analyzed by iterative curve fitting using GraphPad Prism v5 (San Diego, CA) according to the following equation: B=Bmax[L]^n/kdn+[L]^n where B is the amount of bound radioligand, Bmax is the maximum specific binding at equilibrium, [L] is the concentration of radioligand, Kd is the equilibrium dissociation constant of the radioligand, and n is the Hill coefficient.

5-HT3A receptor W183C = target: T4, 5-HT3A receptor W183C (Homo sapiens, UniProt P46098, W178C); test: as above; details: [3H]-palonosetron saturation, 5-HT3A W183C, 4 °C, 24 h, NB = no binding
T4 sequence (P46098 24-478 W178C): T1 sequence (P46098 24-478) with W155C
Protocol: as §4, §5, §6

## NCCc1c[nH]c2ccc(O)cc12 [5-HT, serotonin]
[1]
  Hill Coefficient: 1.4 ± 0.2

## O=C1c2cccc3c2[C@H](CCC3)CN1[C@@H]1CN2CCC1CC2 [Palonosetron]
[2]
  IC50: 0.97 ± 0.26 nM
5-HT3A receptor W90C
  Kd: > 2 nM
5-HT3A receptor W90C; listed as [^3H]palonosetron
  Kd: no saturable, specific binding
5-HT3A receptor W183C
  Kd: > 2 nM
5-HT3A receptor W183C; listed as [^3H]palonosetron
  Kd: no saturable, specific binding
